Our source for the IC50 and GI50 values is US12583825B2, “Benzo[h]quinazolin-4-amine and thieno[3,2-h]quinazolin-4-amine derivatives for the treatment of cancer” (Redona Therapeutics, Inc., priority 2020, dated 2026).

The target in one assay is T1, recombinant human CLK3 (Homo sapiens, UniProt P49761).
T1 construct: purchased Thermo Fisher Scientific PV3826
In words: CLK3 kinase assay (LANCE Ultra). In kind it is biochemical. To be noted: 0.5 nM CLK3, 300 μM ATP, 3 hours at 30° C. The protocol:
CLK3 kinase activity was measured using the LANCE® Ultra technology (PerkinElmer) essentially as recommended by the supplier. Briefly, 2.5 μL of test sample at 4× the desired final concentration in 4% DMSO were dispensed into white, low volume, round bottom, 384 well plates (Corning, cat. no. 4512). 5 μL of a mixture containing recombinant human CLK3 (Thermo Fisher Scientific, cat. no. PV3826) and the labeled peptide substrate ULight™-CREBtide (PerkinElmer, cat. no. TRF0107) prepared in 1.33× kinase buffer (Thermo Fisher Scientific, cat. no. PV3189) were then added. Finally, the reactions were started by adding 2.5 μL of a 4× solution of ATP in kinase buffer. The plates were sealed with adhesive foils and incubated for 3 hours at 30° C. in the dark. The final concentrations of CLK3, ULight™—CREBtide, and ATP were 0.5 nM, 50 nM, and 300 μM, respectively. 5 μL of 40 mM EDTA were then added to terminate the reactions. The Eu-anti-phospho-CREB antibody (PerkinElmer, cat. no. TRF0200) diluted in LANCE® detection buffer (PerkinElmer, cat. no. CR97) was then added to a final concentration of 2 nM and the reactions were incubated for 1 hour at room temperature in the dark. The signals were measured using a Synergy 4 reader (BioTek) with a 320/80 nm filter for the excitation and 620/10 nm and 665/8 nm filters for the donor and acceptor emission, respectively. […] IC50 values were calculated by fitting the concentration-response data to a sigmoidal 4-parameter logistic model.

The test system of the next assay is MDA-MB-231 cells. In words: MDA-MB-231 proliferation assay. In kind it is cell-based. To be noted: Homo sapiens, 72 hours, YO-PRO-1 readout. How it is done:
MDA-MB-231 Proliferation Assay
MDA-MB-231 cells were cultivated in DMEM High Glucose (4.5 g/L) with L-Glutamine (BioConcept, cat. no. 1-26F03-I) supplemented with 1% Na-pyruvate (Sigma, cat. no. S8636), 1% Penicillin-Streptomycin (BioConcept, cat. no. 4-01F00H), and 10% FBS (Sigma, cat. no. F9665) using standard techniques. Cells were seeded in black, clear-bottom 384 well plates for tissue culture (Greiner Bio-One, cat. no. 781091) at a density of 750 cells per well in 20 μL medium and the plates were incubated overnight at 37° C. with 5% CO2 prior to treatment. Experimental compounds were serially diluted in DMSO to 200× the desired final concentrations. The solutions were then diluted 1:40 with culture medium and 5 μL aliquots were mixed into the wells containing the cells. The final concentration of DMSO was 0.5%. The plates were incubated for 72 hours and cell numbers were then measured using YO-PRO™-1 Iodide (ThermoFisher Scientific, cat. no. Y3603) essentially as recommended by the manufacturer. […] The plates were incubated at room temperature in the dark for 30 minutes. Fluorescence intensity signals were then measured on a Synergy 4 reader (BioTek) using 485/20 nm and 530/25 nm filters for the excitation and emission, respectively. Relative proliferation values were calculated by normalizing the raw data using DMSO-treated cells (100% proliferation) and the signals obtained from cells that were evaluated at the time of compound addition (0% proliferation). The concentration-response data were fitted to a sigmoidal 4-parameter logistic model with the maximum constrained to 100%.

T1 sequence (P49761 whole entry): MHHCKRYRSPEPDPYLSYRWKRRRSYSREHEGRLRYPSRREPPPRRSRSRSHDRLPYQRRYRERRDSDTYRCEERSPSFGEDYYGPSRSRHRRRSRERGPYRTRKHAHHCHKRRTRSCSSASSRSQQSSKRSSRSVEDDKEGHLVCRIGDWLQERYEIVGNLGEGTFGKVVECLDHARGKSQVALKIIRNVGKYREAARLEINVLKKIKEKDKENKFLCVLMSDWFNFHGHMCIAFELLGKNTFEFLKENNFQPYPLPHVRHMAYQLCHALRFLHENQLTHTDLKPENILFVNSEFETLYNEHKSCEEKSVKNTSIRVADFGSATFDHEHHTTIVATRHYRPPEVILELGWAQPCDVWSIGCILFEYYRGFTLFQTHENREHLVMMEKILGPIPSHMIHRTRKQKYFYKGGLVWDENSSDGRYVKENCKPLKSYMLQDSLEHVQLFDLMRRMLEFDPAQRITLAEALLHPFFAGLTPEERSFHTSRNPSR

Consider `COc1ccc2c(c1)/C(=N\OC[C@H]1CNC(=O)O1)C(C)(C)c1c(N)ncnc1-2` [Example 12, (5R)-5-[[(Z)-(4-amino-8-methoxy-5,5-dimethyl-benzo[h]quinazolin-6-ylidene)amino]oxymethyl]oxazolidin-2-one], for which, on recombinant human CLK3, the IC50 came out at 129 nM. Also, the concentration for 50% growth inhibition (GI50) in the assay with MDA-MB-231 cells was > 2000 nM.

`COC(=O)CCO/N=C1\c2cc(O[C@H]3CC[C@H](N)CC3)ccc2-c2ncnc(N)c2C1(C)C` [Example 14, methyl 3-[(Z)-[4-amino-8-(trans-4-aminocyclohexoxy)-5,5-dimethyl-benzo[h]quinazolin-6-ylidene]amino]oxypropanoate]: the IC50 on recombinant human CLK3 was found to be 23.9 nM. In the assay with MDA-MB-231 cells, the GI50 worked out at 597 nM.

Consider `CC1(C)/C(=N/O)c2cc(Br)ccc2-c2ncnc(N)c21` [Example 84, (Z)-4-amino-8-bromo-5,5-dimethyl-benzo[h]quinazolin-6-one oxime], for which, at recombinant human CLK3, the IC50 amounted to 10.6 nM. The 50% growth inhibitory concentration (GI50) with MDA-MB-231 cells was > 2000 nM.

For `CC1(C)/C(=N/OCCC#N)c2cc(O[C@H]3CC[C@H](N)CC3)ccc2-c2ncnc(N)c21` [Example 55, 3-[(Z)-[4-amino-8-(trans-4-aminocyclohexoxy)-5,5-dimethyl-benzo[h]quinazolin-6-ylidene]amino]oxypropanenitrile], on recombinant human CLK3, the concentration for half-maximal inhibition (IC50) was 15.6 nM. The GI50 in the assay with MDA-MB-231 cells was 169 nM.

Take `Cc1noc(C)c1CO/N=C1\c2cc(O[C@H]3CC[C@H](N)CC3)ccc2-c2ncnc(N)c2C1(C)C` [Example 25, (6Z)-8-(trans-4-aminocyclohexoxy)-6-[(3,5-dimethylisoxazol-4-yl)methoxyimino]-5,5-dimethyl-benzo[h]quinazolin-4-amine]: the IC50 at recombinant human CLK3 was 151 nM. Moreover, in the assay on MDA-MB-231 cells, the GI50 was found to be 1600 nM.

Take `CO/N=C1\c2cc(N(C)[C@H]3CC[C@H](N)CC3)ccc2-c2ncnc(N)c2C1(C)C` [Example 44, (6Z)—N8-(trans-4-aminocyclohexyl)-6-methoxyimino-N8,5,5-trimethyl-benzo[h]quinazoline-4,8-diamine]: the IC50 on recombinant human CLK3 stood at 15.8 nM. Moreover, the GI50 with MDA-MB-231 cells was > 2000 nM.

Regarding `CO/N=C1\c2cc(O)ccc2-c2ncnc(N)c2C1(C)C` [Example 61, (6Z)-4-amino-6-methoxyimino-5,5-dimethyl-benzo[h]quinazolin-8-ol], the IC50 at recombinant human CLK3 amounted to 53.6 nM. In the assay on MDA-MB-231 cells, the GI50 was > 2000 nM.

For the molecule `COC(=O)CO/N=C1\c2cc(O[C@H]3CC[C@H](N)CC3)ccc2-c2ncnc(N)c2C1(C)C` [Example 31, methyl 2-[(Z)-[4-amino-8-(trans-4-aminocyclohexoxy)-5,5-dimethyl-benzo[h]quinazolin-6-ylidene]amino]oxyacetate], at recombinant human CLK3, the IC50 stood at 76.2 nM. The GI50 in the assay on MDA-MB-231 cells was found to be 1580 nM.

Take `CC1(C)/C(=N/OCCCOCc2ccccc2)c2cc(O[C@H]3CC[C@H](N)CC3)ccc2-c2ncnc(N)c21` [Example 26, (6Z)-8-(trans-4-aminocyclohexoxy)-6-(3-benzyloxypropoxyimino)-5,5-dimethyl-benzo[h]quinazolin-4-amine]: on recombinant human CLK3, the concentration for half-maximal inhibition (IC50) was found to be 42.6 nM. Further, the GI50 with MDA-MB-231 cells came out at 1360 nM.

With `CC1(C)/C(=N\O)c2cc(Br)ccc2-c2ncnc(N)c21` [Example 85, (E)-4-amino-8-bromo-5,5-dimethyl-benzo[h]quinazolin-6-one oxime], the IC50 on recombinant human CLK3 came to 125 nM. The GI50 in the assay on MDA-MB-231 cells was > 2000 nM.

On to `CC1(C)/C(=N/OCCOCC(F)(F)F)c2cc(O[C@H]3CC[C@@H](N)CC3)ccc2-c2ncnc(N)c21` [Example 112, (6Z)-8-(cis-4-aminocyclohexoxy)-5,5-dimethyl-6-[2-(2,2,2-trifluoroethoxy)ethoxyimino]benzo[h]quinazolin-4-amine], for which, at recombinant human CLK3, the half-inhibitory concentration (IC50) was 8.8 nM. Moreover, the GI50 with MDA-MB-231 cells was determined as 66.2 nM.

`CC1(C)/C(=N/OCC2CNC(=O)O2)c2cc(O[C@H]3CC[C@H](N)CC3)ccc2-c2ncnc(N)c21` (stereo partly drawn) [Example 34, 5-[[(Z)-[4-amino-8-(trans-4-aminocyclohexoxy)-5,5-dimethyl-benzo[h]quinazolin-6-ylidene]amino]oxymethyl]oxazolidin-2-one]: the concentration for half-maximal inhibition (IC50) at recombinant human CLK3 was found to be 10.9 nM. Further, the GI50 in the assay with MDA-MB-231 cells turned out to be 620 nM.

As to `CO/N=C1/c2c(ccc(OC)c2N)-c2ncnc(N)c2C1(C)C` [Example 49, (6E)-8-methoxy-6-methoxyimino-5,5-dimethyl-benzo[h]quinazoline-4,7-diamine], the IC50 at recombinant human CLK3 turned out to be 14.4 nM. The GI50 with MDA-MB-231 cells was > 2000 nM.

For the molecule `COc1ccc2c(c1)/C(=N\OCC(=O)NCCN)C(C)(C)c1c(N)ncnc1-2` [Example 8, N-(2-aminoethyl)-2-[(Z)-(4-amino-8-methoxy-5,5-dimethyl-benzo[h]quinazolin-6-ylidene)amino]oxy-acetamide], at recombinant human CLK3, the half-inhibitory concentration (IC50) stood at 73.2 nM. Moreover, in the assay with MDA-MB-231 cells, the GI50 was > 2000 nM.

For `CO/N=C1\c2cc(OC)c(Cl)cc2-c2ncnc(N)c2C1(C)C` [Example 41, (6Z)-9-chloro-8-methoxy-6-methoxyimino-5,5-dimethyl-benzo[h]quinazolin-4-amine], the half-inhibitory concentration (IC50) at recombinant human CLK3 was determined as 92.8 nM. In addition, the 50% growth inhibitory concentration (GI50) in the assay with MDA-MB-231 cells was > 2000 nM.

Consider `CNC(=O)CO/N=C1\c2cc(O[C@H]3CC[C@H](N)CC3)ccc2-c2ncnc(N)c2C1(C)C` [Example 33, 2-[(Z)-[4-amino-8-(trans-4-aminocyclohexoxy)-5,5-dimethyl-benzo[h]quinazolin-6-ylidene]amino]oxy-N-methyl-acetamide], for which the IC50 at recombinant human CLK3 was 23.3 nM. Besides, in the assay with MDA-MB-231 cells, the GI50 stood at 1190 nM.

With `CC1(C)/C(=N/OC[C@H]2CNC(=O)O2)c2cc(O[C@H]3CC[C@H](N)CC3)ccc2-c2ncnc(N)c21` [Example 37, (5R)-5-[[(Z)-[4-amino-8-(trans-4-aminocyclohexoxy)-5,5-dimethyl-benzo[h]quinazolin-6-ylidene]amino]oxymethyl]oxazolidin-2-one], the half-maximal inhibitory concentration (IC50) on recombinant human CLK3 came to 59 nM. In addition, the GI50 in the assay with MDA-MB-231 cells is > 2000 nM.

`CC1(C)/C(=N/OC[C@@H]2CNC(=O)O2)c2cc(Br)ccc2-c2ncnc(N)c21` [Example 51, (5S)-5-[[(Z)-(4-amino-8-bromo-5,5-dimethyl-benzo[h]quinazolin-6-ylidene)amino]oxymethyl]oxazolidin-2-one]: the IC50 at recombinant human CLK3 was found to be 7.26 nM. Besides, in the assay with MDA-MB-231 cells, the GI50 was found to be 511 nM.

In the case of `CC(=O)c1ccc2c(c1)/C(=N\OC[C@@H]1CNC(=O)O1)C(C)(C)c1c(N)ncnc1-2` [Example 98, (5S)-5-[[(Z)-(8-acetyl-4-amino-5,5-dimethyl-benzo[h]quinazolin-6-ylidene)amino]oxymethyl]oxazolidin-2-one], on recombinant human CLK3, the IC50 came to 26 nM. The GI50 in the assay on MDA-MB-231 cells was > 2000 nM.

For the molecule `COc1ccc2c(c1)/C(=N\OC[C@@H]1CN(C)C(=O)O1)C(C)(C)c1c(N)ncnc1-2` [Example 50, (5S)-5-[[(Z)-(4-amino-8-methoxy-5,5-dimethyl-benzo[h]quinazolin-6-ylidene)amino]oxymethyl]-3-methyl-oxazolidin-2-one], at recombinant human CLK3, the IC50 is < 1.5 nM. Also, the GI50 in the assay with MDA-MB-231 cells was 761 nM.

In the case of `CC1(C)/C(=N/OCc2ccc(C#N)cc2)c2cc(O[C@H]3CC[C@H](N)CC3)ccc2-c2ncnc(N)c21` [Example 20, 4-[[(Z)-[4-amino-8-(trans-4-aminocyclohexoxy)-5,5-dimethyl-benzo[h]quinazolin-6-ylidene]amino]oxymethyl]benzonitrile], the 50% inhibitory concentration (IC50) at recombinant human CLK3 was found to be 237 nM. Also, in the assay on MDA-MB-231 cells, the GI50 was > 2000 nM.

As to `CN1C[C@@H](CO/N=C2\c3cc(Br)ccc3-c3ncnc(N)c3C2(C)C)OC1=O` [Example 53, (5S)-5-[[(Z)-(4-amino-8-bromo-5,5-dimethyl-benzo[h]quinazolin-6-ylidene)amino]oxymethyl]-3-methyl-oxazolidin-2-one], at recombinant human CLK3, the half-maximal inhibitory concentration (IC50) is < 1.5 nM. For the same molecule, the 50% growth inhibitory concentration (GI50) with MDA-MB-231 cells came to 194 nM.

In the case of `CC1(C)/C(=N/OCC#N)c2cc(O[C@H]3CC[C@H](N)CC3)ccc2-c2ncnc(N)c21` [Example 22, [(Z)-[4-amino-8-(trans-4-aminocyclohexoxy)-5,5-dimethyl-benzo[h]quinazolin-6-ylidene]amino]oxyacetonitrile], the IC50 at recombinant human CLK3 worked out at 34.5 nM. For the same molecule, in the assay on MDA-MB-231 cells, the GI50 turned out to be 691 nM.
